Where “and” joins values, the source holds several entries; their conditions need not be identical. Identical values can stand only once. Values belong to the compound of their own block, whether it stands above or below them.
Tests used:
[1] = molecular target: T1, lysosomal acid lipase (LAL) (Homo sapiens, UniProt P38571); assay: LAL assay development: replacement of cardiolipin by phospholipids and of Triton X-100 by detergent; assay type: biochemical; conditions: for change of LAL activity over that measured with cardiolipin: phospholipid tested individually at 0.1 mmol/L as replacement for cardiolipin
T1 construct: from tissue; host or cells: dried blood spots (DBS) from healthy adults, healthy children and LAL-deficient patients
T1 sequence (P38571 77-399): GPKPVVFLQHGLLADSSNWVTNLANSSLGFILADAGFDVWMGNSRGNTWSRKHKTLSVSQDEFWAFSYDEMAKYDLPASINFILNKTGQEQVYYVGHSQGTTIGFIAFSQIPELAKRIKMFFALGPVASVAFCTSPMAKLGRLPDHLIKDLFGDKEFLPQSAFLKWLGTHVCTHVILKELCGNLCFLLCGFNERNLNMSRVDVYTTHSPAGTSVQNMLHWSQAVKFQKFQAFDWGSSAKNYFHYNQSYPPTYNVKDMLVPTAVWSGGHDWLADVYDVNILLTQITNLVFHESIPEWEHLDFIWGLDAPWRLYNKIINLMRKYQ
Description: A variety of phospholipids were evaluated as replacements for cardiolipin, which was used in the original LAL assay described by Hamilton et al. (Clin Chim Acta 2012; 413:1207-10). The following phospholipids were tested individually at 0.1 mmol/L: 1,2-dioleoyl-phosphatidylethanolamine, 1,2-dioleoyl-phosphatidylmethanol, 1,2-dioleoyl-phosphatidylcholine, 1,2-dioleoyl-phosphatidylserine, brain phosphatidylethanolamine, 1,2-heptadecyl-phosphatidylcholine, and 1,2-lauryl-phosphatidylcholine.
The original LAL assay described by Hamilton et al. (Clin Chim Acta 2012; 413:1207-10) used Triton X-100 as the detergent, which was replaced this with sodium taurodeoxycholate because this detergent largely remains in the aqueous phase following liquid-liquid extraction with ethyl acetate (thus minimizing injection of large amounts of detergent onto the UPLC column). […] Thus, 2.5 mmol/L was chosen for all subsequent studies.

[2] = system: lysosomal acid lipase (LAL); assay: UPLC-MS/MS LAL assay in dried blood spots (DBS) with substrate P-PMHC; assay type: biochemical, human
Description: Assay mixture was prepared by combining 9 volumes of 0.1 mol/L sodium acetate buffer (made by adding reagent grade NaOH to 0.1 mol/L reagent-grade acetic acid in water), pH 4.5, containing 2.5 mmol/L sodium taurodeoxycholate hydrate (Sigma, 287245) with 1 volume of 0.5% (w/v) bovine heart cardiolipin in ethanol (Sigma, C1649) containing 3 mmol/L substrate palmitoyl 4-propyl-8-methyl-7-hydroxycoumarin (P-PMHC) and 50 μmol/L carbon-13-labeled 4-propyl-8-methyl-7-hydroxycoumarin (internal standard). The latter was prepared by mixing solid substrate P-PMHC with internal standard solution in absolute ethanol, removing solvent in a centrifugal concentrator under vacuum (or with a jet of nitrogen), and then mixing with commercial cardiolipin/ethanol solution. This ethanol stock could be stored at −20° C. for several months (avoid>2-3 freeze-thaw cycles), and the aqueous buffer could be stored at 4° C. for several months. This was based on no change in assay results when new and stored solutions were used. Assay mixture was made fresh before each use.
To a 3-mm punch from a DBS in a 1.5-mL polypropylene Eppendorf tube was added 200 μL of purified water (Milli-Q, EMD Millipore). The tubes were shaken on an orbital platform shaker for 1 h at ambient temperature. The tube of DBS extract was mixed briefly on a vortex-type mixer, and a 10 μL aliquot was added to the well of a polypropylene, deep-well, 96-well plate (Costar, 3959). Assay mixture (30 μL, ambient temperature) was added to each well. The plate was centrifuged at 3000 g for 5 min at ambient temperature to ensure that all liquid was at the well bottom. The plate was sealed with a film cover (Advantage 96-well round clear Silicone/PTFE cap mat 962611). The plate was shaken at 37° C. in an incubator with orbital mixing at 400 rpm for 3 h. The reactions were quenched by addition of 80 μL of purified water (Milli-Q, EMD Millipore) followed by 400 μL of HPLC-grade ethyl acetate. The well contents were mixed by pipetting up and down approximately 10 times. The plate was centrifuged at 3000 g for 5 min at ambient temperature, and then 120 μL of the upper ethyl acetate layer was transferred to a shallow-well, 96-well polypropylene plate (Greigner, 651201). Solvent was removed at ambient temperature with a jet of nitrogen. To each well was added 200 μL of water/methanol (1:1, Fisher Optima Grade), and samples were mixed by pipetting up and down a few times. The plate was wrapped with aluminum foil and placed in the autosampler chamber at 8° C. in preparation for LC-MS/MS analysis.
Liquid chromatography was carried out using a Waters Acquity binary solvent pump system with a CSH, C18, 1.7-μm, 2.1×50-mm column (Waters, 186005296) and a CSH, C18, 1.7-μm guard column (Vanguard, 186005303). The solvent program was 99% A (70:30, water/acetonitrile, 0.1% formic acid, Fisher Optima grade)/1% B (50:50, acetonitrile/isopropanol, 0.1% formic acid) to 30% A/70% B over 1 min, then jump to 100% B and hold for 0.5 min, then to 99% A over 0.5 min (flow rate 0.8 mL/min). The total run time was 2.5 min. Mass spectrometry was carried out with a Waters Xevo TQ tandem-quadrupole instrument.

[3] = molecular target: T1, lysosomal acid lipase (LAL); assay: Testing the library of palmitoyl-4MU analogs as LAL substrates with DBS, with and without Lalistat-2, UPLC-MS/MS; assay type: biochemical; conditions: for overall ranking in the library (activity and LAL specificity): library of 25 compounds
Description: The library of palmitoyl-4MU analogs was tested as LAL substrates as follows. Assay cocktail was a solution of 10:1 buffer to substrate stock, each warmed to 37° C. The substrate stock contained 3.7 mM substrate and 0.5% cardiolipin in ethanol. The buffer contained 0.15 M sodium acetate, pH 4.0, and 2.5 mM sodium taurodeoxycholate. Rehydrated blood mixture (40 mL) was combined with 10 mL of H2O or 30 mM Lalistat-2 in an Eppendorf 1.5 mL polypropylene tube and pre-incubated for 15 min at 37° C. with orbital shaking at 250 rpm. Assay cocktail (100 or 150 mL) was added and samples were incubated for 3 hr at 37° C. with orbital shaking at 250 rpm. Assay was quenched by first flash freezing to −80° C. followed by subsequent addition of 400 mL of ethyl acetate and thawing. Samples were then vortexed and centrifuged at 2700×g for 5 min. Top ethyl acetate layer (200 mL) was transferred to an autosampler plate and blown dry under nitrogen gas then resuspended in 1:1 H2O:methanol solution, and […] per well injected for analysis by UPLC-MS/MS. The LC-MS/MS data was converted into mmole of product by using an external standard of 2.5 nmole (the individual corresponding coumarins) spiked into 40 mL rehydrated blood in a 1.5 mL Eppendorf polypropylene tube incubated separately from the assay cocktail, which were quenched immediately following incubation. Additional controls included a Lalistat-2 inhibited rehydrated DBS solution incubated separately from the assay cocktail then combined and immediately quenched as a blank. Unique duplicate spiked controls and blank controls were used for each coumarin analog.

[4] = molecular target: T1, lysosomal acid lipase (LAL); assay: Previous fluorometric LAL assay (Hamilton et al.) with palmitoyl-4MU with and without Lalistat-2 in DBS; assay type: biochemical; conditions: same DBS extract, substrate palmitoyl-4MU, 10 μmol/L Lalistat-2
Source text: LAL is detected in leukocytes or fibroblasts using radiometric, immunologic, or fluorescence assays (The metabolic and molecular bases of inherited disease. 8th Ed. New York (NY): McGraw-Hill; 2001. p. 3827-3387). Hamilton and colleagues recently developed a fluorometric assay to detect LAL in dried blood spots (DBS) (Hamilton et al., Clin Chim Acta 2012; 413:1207-10). The assay is based on the release of 4-methylumbelliferone from its ester with palmitic acid. However, the substrate is not specific for LAL, and the method requires two assays performed in parallel, the first in the presence of a LAL-specific covalent inactivator Lalistat-2. LAL activity is calculated from the difference in these 2 assays.
A concentration of P-PMHC in the mixture of 3 mmol/L was settled on based on a combination of high LAL activity and minimal background. The original assay described by Hamilton et al. (Clin Chim Acta 2012; 413:1207-10) used 40 μL of an aqueous extract of a 3-mm DBS added to 160 μL of assay mixture. To keep the solvent volumes for the liquid-liquid extraction to a minimum, thus avoiding long times for solvent removal, 10 μL of an aqueous extract of a 3-mm DBS punch was added to 30 μL of assay mixture.

SMILES: CCCCCCCC/C=C\CCCCCCCC(=O)OC[C@H](COP(=O)([O-])OCC[N+](C)(C)C)OC(=O)CCCCCCC/C=C\CCCCCCCC [1,2-dioleoyl-phosphatidylcholine]
change of LAL activity over that measured with cardiolipin [1]: None of these phospholipids led to any substantial increase in LAL

SMILES: CCCCCCCC/C=C\CCCCCCCC(=O)OC[C@H](COP(=O)(O)OCCN)OC(=O)CCCCCCC/C=C\CCCCCCCC [1,2-dioleoyl-phosphatidylethanolamine]
change of LAL activity over that measured with cardiolipin [1]: None of these phospholipids led to any substantial increase in LAL

SMILES: CCCCCCCC/C=C\CCCCCCCC(=O)OCC(COP(=O)(O)OC)OC(=O)CCCCCCC/C=C\CCCCCCCC (centres unmarked) [1,2-dioleoyl-phosphatidylmethanol]
change of LAL activity over that measured with cardiolipin [1]: None of these phospholipids led to any substantial increase in LAL

SMILES: CCCCCCCC/C=C\CCCCCCCC(=O)OC[C@H](COP(=O)(O)OC[C@H](N)C(=O)O)OC(=O)CCCCCCC/C=C\CCCCCCCC [1,2-dioleoyl-phosphatidylserine]
change of LAL activity over that measured with cardiolipin [1]: None of these phospholipids led to any substantial increase in LAL

SMILES: CCCCCCCCCCCCCCCCC(=O)OC[C@H](COP(=O)([O-])OCC[N+](C)(C)C)OC(=O)CCCCCCCCCCCCCCCC [1,2-heptadecyl-phosphatidylcholine]
change of LAL activity over that measured with cardiolipin [1]: None of these phospholipids led to any substantial increase in LAL

SMILES: CCCCCCCCCCCC(=O)OC[C@H](COP(=O)([O-])OCC[N+](C)(C)C)OC(=O)CCCCCCCCCCC [1,2-lauryl-phosphatidylcholine]
change of LAL activity over that measured with cardiolipin [1]: None of these phospholipids led to any substantial increase in LAL

specific activity ([2]; final assay conditions, 3-mm punch of a DBS from a healthy adult, UPLC-MS/MS): 874 µmol/h/L
specificity of the substrate for LAL in DBS ([2]; from Lalistat-2 inhibition and LAL-deficient patients, listed as P-PMHC): highly specific for LAL in DBS
LAL activity in DBS of LAL-deficient patients ([2]; six LAL-deficient patients, UPLC-MS/MS, no Lalistat-2): close to zero
substrate activity with DBS as the source of LAL compared to palmitoyl-4MU ([3]; 3.7 mM substrate stock, 3 hr 37° C.): more active than palmitoyl-4MU
SMILES: CCCCCCCCCCCCCCCC(=O)Oc1ccc2c(CCC)cc(=O)oc2c1C [Compound 1, 4-propyl-8-methyl-7-palmitoyloxycoumarin]
Activity without Lalistat-2 ([2]; LAL activity toward substrate P-PMHC, tandem mass spectrometry, DBS of Adult 1 (r9) / Adult 2 (r10), triplicate, blank corrected): 519 µmol/h/L and 539 µmol/h/L and 473 µmol/h/L and 554 µmol/h/L and 582 µmol/h/L
overall ranking in the library (activity and LAL specificity) [3]: highest combination of total lipase activity and LAL-specificity
overall ranking in the library (activity and LAL specificity) ([3]; listed as P-PMHC): best combination of high specific activity on LAL and high specificity for LAL

inhibition of the activity toward P-PMHC ([2]; DBS extracts from two healthy persons preincubated with 10 μmol/L Lalistat-2): 98%
inhibition of the activity toward P-PMHC ([2]; DBS extracts preincubated with 100 μmol/L Lalistat-2): 99%
total lipase activity blocked [4]: 78%
SMILES: O=C(Oc1nsnc1N1CCCCC1)N1CCCCC1 [Lalistat-2, reference compound]

decrease of LAL activity on replacement of Triton X-100 ([1]; 2.5 mmol/L sodium taurodeoxycholate): 20%
SMILES: C[C@H](CCC(=O)NCCS(=O)(=O)[O-])[C@H]1CC[C@H]2[C@@H]3CC[C@@H]4C[C@H](O)CC[C@]4(C)[C@H]3C[C@H](O)[C@]12C.[Na+] [sodium taurodeoxycholate]

Reference: patent publication US11396499B2, “Lysosomal acid lipase assay” (University of Washington, priority 2018, dated 2022)
